Common to all, as to type: functional
Experiment [1] relates to Staphylococcus aureus. The experiment in a line: In vitro inhibition of growth of methicillin-resistant Staphylococcus aureus MRSA ATCC 335893 (clinical isolates).
In experiment [2] the test system is Staphylococcus aureus. Description: In vitro inhibition of growth of methicillin-resistant Staphylococcus aureus MRSA spain 356 (clinical isolates).
Experiment [3] concerns Staphylococcus aureus. The experiment in a line: In vitro inhibition of growth of methicillin-resistant Staphylococcus aureus MRSA 76 (clinical isolates).

Values after ≈ are worked out from the molar mass of the structure shown.

As usually defined, the MIC is the lowest concentration that inhibits growth of the organism. Higher therefore signals a need for much substance.

For the compound `NCCSc1cncc(SC2=C(C(=O)O)N3C(=O)[C@@H](NC(=O)/C(=N\O)c4cccc(N)n4)[C@H]3SC2)n1`, the MIC against Staphylococcus aureus [1] is 8 µg/mL (≈ 14.6 µM); in the experiment with Staphylococcus aureus [2], 16 µg/mL (≈ 29.2 µM); against Staphylococcus aureus [3], 16 µg/mL (≈ 29.2 µM).
`COc1nc(CSCCN)c(SC2=C(C(=O)O)N3C(=O)[C@@H](NC(=O)/C(=N\O)c4cccc(N)n4)[C@H]3SC2)s1`: the MIC against Staphylococcus aureus [1], in the experiment on Staphylococcus aureus [2] and in the experiment on Staphylococcus aureus [3] was 4 µg/mL (≈ 6.69 µM) in each case.
As to `NCCSCc1ccccc1SC1=C(C(=O)O)N2C(=O)[C@@H](NC(=O)/C(=N\O)c3cccc(N)n3)[C@H]2SC1`, the MIC against Staphylococcus aureus [1], against Staphylococcus aureus [2] and against Staphylococcus aureus [3] was 1 µg/mL (≈ 1.78 µM) each time.
Turning to `NCCSCc1cnccc1SC1=C(C(=O)O)N2C(=O)[C@@H](NC(=O)/C(=N\O)c3nc(N)sc3Cl)[C@H]2SC1`, the MIC against Staphylococcus aureus [1], against Staphylococcus aureus [2] and with Staphylococcus aureus [3] was 1 µg/mL (≈ 1.66 µM) each time.
Turning to `NCCSCc1ncsc1SC1=C(C(=O)O)N2C(=O)[C@@H](NC(=O)/C(=N\O)c3cccc(N)n3)[C@H]2SC1`, the values for the MIC against Staphylococcus aureus [1], in the experiment with Staphylococcus aureus [2] and against Staphylococcus aureus [3] were 1 µg/mL (≈ 1.76 µM), 2 µg/mL (≈ 3.52 µM) and 2 µg/mL (≈ 3.52 µM), respectively.
For the compound `NCCSCc1csc(SC2=C(C(=O)O)N3C(=O)[C@@H](NC(=O)/C(=N\O)c4cccc(N)n4)[C@H]3SC2)n1`, the MIC in the experiment on Staphylococcus aureus [1] stood at 1 µg/mL (≈ 1.76 µM); with Staphylococcus aureus [2] it was 2 µg/mL (≈ 3.52 µM); in the experiment on Staphylococcus aureus [3] it was 2 µg/mL (≈ 3.52 µM).
Regarding `NCCCSc1nsc(SC2=C(C(=O)O)N3C(=O)[C@@H](NC(=O)/C(=N\O)c4cccc(N)n4)[C@H]3SC2)n1`, the MIC with Staphylococcus aureus [1], against Staphylococcus aureus [2] and against Staphylococcus aureus [3] was 2 µg/mL (≈ 3.52 µM) each time.
In the case of `NCCSCc1nc(N)sc1SC1=C(C(=O)O)N2C(=O)[C@@H](NC(=O)/C(=N\O)c3cccc(N)n3)[C@H]2SC1`, the MIC is 2 µg/mL (≈ 3.43 µM) in the experiment with Staphylococcus aureus [1], 4 µg/mL (≈ 6.86 µM) against Staphylococcus aureus [2] and 8 µg/mL (≈ 13.7 µM) with Staphylococcus aureus [3].
Regarding `NCCSCc1nnsc1SC1=C(C(=O)O)N2C(=O)[C@@H](NC(=O)/C(=N\O)c3cccc(N)n3)[C@H]2SC1`, the minimum inhibitory concentration (MIC) in the experiment on Staphylococcus aureus [1], in the experiment on Staphylococcus aureus [2] and with Staphylococcus aureus [3] was 1 µg/mL (≈ 1.76 µM) in each case.
As to `C[C@@H](O)[C@H]1C(=O)N2C(C(=O)O)=C(SCCNC=N)C[C@H]12` [IMIPENEM ANHYDROUS], the MIC against Staphylococcus aureus [1], against Staphylococcus aureus [2] and against Staphylococcus aureus [3] was 32 µg/mL (≈ 107 µM) in each case.
`Cc1nc(CSCCN)c(SC2=C(C(=O)O)N3C(=O)[C@@H](NC(=O)/C(=N\O)c4cccc(N)n4)[C@H]3SC2)s1`: the MIC with Staphylococcus aureus [1], against Staphylococcus aureus [2] and with Staphylococcus aureus [3] was 2 µg/mL (≈ 3.44 µM) each time.
In the case of `NCCSc1nsc(SC2=C(C(=O)O)N3C(=O)[C@@H](NC(=O)/C(=N\O)c4cccc(N)n4)[C@H]3SC2)n1`, the MIC in the experiment on Staphylococcus aureus [1], in the experiment on Staphylococcus aureus [2] and with Staphylococcus aureus [3] was 2 µg/mL (≈ 3.61 µM) each time.
In the case of `NCCSCc1cnccc1SC1=C(C(=O)O)N2C(=O)[C@@H](NC(=O)/C(=N\O)c3cccc(N)n3)[C@H]2SC1`, the MIC with Staphylococcus aureus [1] was determined as 2 µg/mL (≈ 3.56 µM); in the experiment with Staphylococcus aureus [2] it was 2 µg/mL (≈ 3.56 µM); in the experiment with Staphylococcus aureus [3], 1 µg/mL (≈ 1.78 µM).
As to `NCCSc1nccc(SC2=C(C(=O)O)N3C(=O)[C@@H](NC(=O)/C(=N\O)c4cccc(N)n4)[C@H]3SC2)n1`, the MIC with Staphylococcus aureus [1] is 8 µg/mL (≈ 14.6 µM); with Staphylococcus aureus [2], 16 µg/mL (≈ 29.2 µM); against Staphylococcus aureus [3], 16 µg/mL (≈ 29.2 µM).
In the case of `NCCSCc1nsc(SC2=C(C(=O)O)N3C(=O)[C@@H](NC(=O)/C(=N\O)c4cccc(N)n4)[C@H]3SC2)n1`, the MIC came out at 2 µg/mL (≈ 3.52 µM) in the experiment with Staphylococcus aureus [1], 4 µg/mL (≈ 7.03 µM) in the experiment with Staphylococcus aureus [2] and 4 µg/mL (≈ 7.03 µM) in the experiment with Staphylococcus aureus [3].
On to `NCCSCc1nc(Cl)sc1SC1=C(C(=O)O)N2C(=O)[C@@H](NC(=O)/C(=N\O)c3cccc(N)n3)[C@H]2SC1`, for which the MIC was found to be 1 µg/mL (≈ 1.66 µM) in the experiment with Staphylococcus aureus [1], 1 µg/mL (≈ 1.66 µM) with Staphylococcus aureus [2] and 2 µg/mL (≈ 3.32 µM) with Staphylococcus aureus [3].
Turning to `NCCSCc1nc(SCCN)sc1SC1=C(C(=O)O)N2C(=O)[C@@H](NC(=O)/C(=N\O)c3cccc(N)n3)[C@H]2SC1`, the MIC with Staphylococcus aureus [1], against Staphylococcus aureus [2] and with Staphylococcus aureus [3] was 1 µg/mL (≈ 1.56 µM) in each case.
`NCCSc1nccnc1SC1=C(C(=O)O)N2C(=O)[C@@H](NC(=O)/C(=N\O)c3cccc(N)n3)[C@H]2SC1`: the MIC in the experiment with Staphylococcus aureus [1], with Staphylococcus aureus [2] and with Staphylococcus aureus [3] was 2 µg/mL (≈ 3.65 µM) each time.
With `NCCSCc1nnsc1SC1=C(C(=O)O)N2C(=O)[C@@H](NC(=O)/C(=N\O)c3csc(N)n3)[C@H]2SC1`, the MIC against Staphylococcus aureus [1], with Staphylococcus aureus [2] and in the experiment with Staphylococcus aureus [3] was 1 µg/mL (≈ 1.74 µM) each time.

The record behind these values is ChEMBL document CHEMBL1134814, “New anti-MRSA cephalosporins with a basic aminopyridine at the C-7 position” (2001).
